Measured values published in paper PMC11766601, “A Comparative Study of the In Vitro Intestinal Permeability of Pinnatoxins and Portimine” (Marine Drugs, 2025).

Experiments:
cancer cells = conditions: cancer cells; cited from earlier work
[1] = Toxin crossing and apparent permeability across Caco-2 cell monolayers (A to B), LC-MS/MS; format: in vitro ADME, human; conditions: human, Caco-2, A to B
Protocol: (§1) All experiments were performed with human intestinal Caco-2 cells (ATCC-HTB37), acquired from the American Type Culture Collection (ATCC; Manassas, VA, USA). Caco-2 cells originate from a colorectal adenocarcinoma, but upon reaching confluence, they differentiate and express the characteristics of enterocytes. The cells were cultivated in minimum essential medium containing 5.5 mM D-glucose, Earle’s salts, and 2 mM L-alanyl-glutamine (MEM GlutaMAX™, Gibco, Bromont, QC, Canada) supplemented with 10% fetal bovine serum (FBS, Gibco), 1% non-essential amino acids, 50 U/mL penicillin, and 50 μg/mL streptomycin (Gibco) under humidified conditions (37 °C, 5% CO2, 95% humidity). The cells were grown for 3–4 days up to 80% confluence before trypsinization and sub-culture. For the experiments, the cells were seeded in TRANSWELL® plates (12 wells, 0.4 µm pore size; Costar®, Corning Incorporated, Corning, NY, USA) at a density of 90,000 cells/cm^2. Prior to toxin treatment, highly differentiated Caco-2 cells were obtained after 24–26 days of culture, with medium renewal every 2–3 days. Passage numbers between 30 and 40 were used for experiments.
(§2) PnTX-A, PnTX-G, PnTX-E, PnTX-H, and portimine stock solutions were prepared in methanol, while PnTX-F was provided in acetonitrile/acetic acid (50%/0.1%). For each toxin, the cells were incubated at 8, 16, and 32 ng/mL (diluted in HBSS) for 2 h, 6 h, and 24 h, with a final volume of 1.5% solvent. The controls were incubated with the cell culture medium containing the respective solvent of the toxin at 1.5%. Each experiment included three biological replicates. Two to three independent experiments were conducted.
(§3) The apical and basolateral compartments were collected after 2, 6, and 24 h treatment time. Parts of the solutions that were used to load the apical compartments were also stored (T0) to take into account the real concentration and not the estimated concentration. All the samples were stored at −20 °C until LC/MS analysis.
(§4) The LC-MS/MS analysis of toxins was implemented for the quantitative analysis of toxins. The LC system was an Agilent 1200 (Agilent Technologies, Santa Clara, CA, USA). The chromatographic separation was performed using a column Hypersil GOLD® C18 50 mm × 2.1 mm, 1.9 μm (Thermo Scientific, Waltham, MA, USA). Eluent A consisted of water, and eluent B of acetonitrile/water at a ratio of 95:5 (v/v), with both eluents containing 50 mM formic acid and 2 mM ammonium formate. The LC flow rate was 0.4 mL/min, and the gradient was programmed as follows: 10% B held for 0.5 min, 10–90% B in 5 min, 90% B held for 1 min, 90–10% B in 0.5 min, and 10% B held for 3.0 min, for a total run time of 10 min. The injection volume was 5 μL, while the column temperature was maintained at 40 °C. The column effluent was transferred via a divert valve (Valco Instruments Co., Inc., Houston, TX, USA), either to the mass spectrometer (between 1.7 and 5.5 min) or to waste.
(§5) The detection system was constructed with an API 4000 triple quadrupole mass spectrometer (Sciex, Framingham, MA, USA) equipped with an ElectroSpray Ionization (ESI) source (Turbo V). The mass spectrometer was operated in positive ESI mode. The source temperature was set at 600 °C, and the spray voltage was 5500 V. Air was used as a nebulizer gas and an auxiliary gas, with a gas pressure of 40 and 60 psi, respectively. Meanwhile, the curtain gas and collision gas were nitrogen, with a gas pressure of 15 and 8 psi, respectively. The mass spectrometer was operated in multiple reaction monitoring mode (MRM). One transition was used for quantification (Q) and another as a qualifier transition (q). A mass resolution of 0.7 Da full width at half maximum (FWHD) was set on the first (Q1) and the third (Q3) quadrupoles. Instrument control and data were handled with Analyst software version 1.5.1 (Sciex, Framingham, MA, USA).
(§6) The portimine and PnTX retention times varied between 2.7 and 4.4 min (Figure S1). […]

Caco-2 cell monolayers [2] = assay: as above; format: in vitro ADME, human; conditions: for % theoretical amount of toxin crossing the Caco-2 cell monolayers: relative to theoretical loaded concentration; for Percentage of toxin crossing the Caco-2 cell monolayers: A to B, relative to quantified T0
Protocol: as §1, §2, §3, §4, §5, §6

Caco-2 cells = assay: Trans-epithelial electrical resistance (TEER) of differentiated Caco-2 monolayers; format: cell-based, human; conditions: 24 h
Protocol: as §1, §2
Epithelial integrity was examined by measuring the TEER between the apical and basolateral compartments. After rinsing with a HBSS solution (HBSS, HEPES 5 mM, pH 7.4), the Caco-2 monolayers were equilibrated for 30 min at 37 °C with 300 and 1000 µL HBSS in the apical (A) and basolateral (B) chambers, respectively. Then, the content of the apical compartment was replaced with 500 µL HBSS-containing toxins. TEER was quantified with a Millipore Millicell Electrical Resistance System (ERS Millipore, EMD Millipore Corporation, Burlington, MA, USA). The mean value of two measurements per well before and after the treatment was calculated and multiplied by the surface of the insert to obtain Ω × cm^2. After blank subtraction, the results were presented as a percentage of the solvent control.

mice = conditions: mice, oral exposure; cited from earlier work
Caco-2 cell monolayers [3] = assay: Lucifer Yellow paracellular permeability (barrier integrity); format: cell-based, human; conditions: 24 h, all concentrations (8, 16, 32 ng/mL)
Protocol: as §1, §2
For the assay, both compartments of the insert system were washed with Hank’s balanced salt solution (HBSS). Then, 0.5 mL of 0.1 mg/mL Lucifer Yellow in HBSS buffer and 1 mL of pure HBSS buffer were added to the apical and basolateral compartments, respectively. After a 2 h incubation at 37 °C, the media of the basolateral compartments were collected and the fluorescence of each compartment was measured in triplicate (excitation: 405 nm, emission: 520 nm) with a FLUOstar Optima microplate reader (BMG Labtech, Ortenberg, Germany). After subtraction of the blank (HBSS), the permeability of the […] was calculated against the value obtained for pure LY and reported as % permeability.

C=CC1=CC2C3O[C@]4(CCC(O4)[C@@H](C)C[C@@H](O)C3=O)CC(=O)C3=NCC[C@@]32CC1 (stereo partly shown) [Portimine-B, portimine-B, reference compound]
apoptosis induction (cancer cells): induces apoptosis in cancer cells but with less activity

C=C1CCCC2=NCC(C)C(C)CC23CCC(C2CCC(=O)O2)=CC3C2OC3(CC(C)CC2O3)CC2OC3(CCC4(OC(CCC4(C)O)C1)O3)CC(C)C2O (stereo not shown) [PnTX-F]
Papp at 2 h, 8 ng/mL ([1]; 2 h, loaded 8 ng/mL): 8.95 ± 1.69 ×10⁻⁶ cm/s
Papp at 2 h, 16 ng/mL ([1]; 2 h, loaded 16 ng/mL): 6.28 ± 2.37 ×10⁻⁶ cm/s
Papp at 2 h, 32 ng/mL ([1]; 2 h, loaded 32 ng/mL): 6.94 ± 2.03 ×10⁻⁶ cm/s
Papp at 6 h, 8 ng/mL ([1]; 6 h, loaded 8 ng/mL): 16.1 ± 0.24 ×10⁻⁶ cm/s
Papp at 6 h, 16 ng/mL ([1]; 6 h, loaded 16 ng/mL): 11.4 ± 2.88 ×10⁻⁶ cm/s
Papp at 6 h, 32 ng/mL ([1]; 6 h, loaded 32 ng/mL): 13.7 ± 1.09 ×10⁻⁶ cm/s
percentage of toxin crossing (text summary over 8-32 ng/mL) (Caco-2 cell monolayers [2]; 2 h): around 12%
% theoretical amount of toxin crossing the Caco-2 cell monolayers (Caco-2 cell monolayers [2]; 2 h, 8 ng/mL): 4.75 ± 0.35%
% theoretical amount of toxin crossing the Caco-2 cell monolayers (Caco-2 cell monolayers [2]; 2 h, 16 ng/mL): 4.00 ± 0.00%
% theoretical amount of toxin crossing the Caco-2 cell monolayers (Caco-2 cell monolayers [2]; 2 h, 32 ng/mL): 5.03 ± 0.31%
Percentage of toxin crossing the Caco-2 cell monolayers (Caco-2 cell monolayers [2]; 2 h, loaded 8 ng/mL): 14.43 ± 2.73%
Percentage of toxin crossing the Caco-2 cell monolayers (Caco-2 cell monolayers [2]; 2 h, loaded 16 ng/mL): 10.12 ± 3.82%
Percentage of toxin crossing the Caco-2 cell monolayers (Caco-2 cell monolayers [2]; 2 h, loaded 32 ng/mL): 11.20 ± 3.27%
% theoretical amount of toxin crossing the Caco-2 cell monolayers (Caco-2 cell monolayers [2]; 6 h, 8 ng/mL): 8.75 ± 2.12%
% theoretical amount of toxin crossing the Caco-2 cell monolayers (Caco-2 cell monolayers [2]; 6 h, 16 ng/mL): 7.44 ± 0.97%
% theoretical amount of toxin crossing the Caco-2 cell monolayers (Caco-2 cell monolayers [2]; 6 h, 32 ng/mL): 10.31 ± 2.83%
Percentage of toxin crossing the Caco-2 cell monolayers (Caco-2 cell monolayers [2]; 6 h, loaded 8 ng/mL): 26.00 ± 0.52%
Percentage of toxin crossing the Caco-2 cell monolayers (Caco-2 cell monolayers [2]; 6 h, loaded 16 ng/mL): 18.36 ± 4.64%
Percentage of toxin crossing the Caco-2 cell monolayers (Caco-2 cell monolayers [2]; 6 h, loaded 32 ng/mL): 22.09 ± 1.76%
permeability / oral bioavailability class from Caco-2 Papp (Caco-2 cell monolayers [2]; threshold Papp > 1.5 × 10^−6 cm·s^−1 = highly penetrative): high oral bioavailability
TEER (Caco-2 cells; 32 ng/mL): 67 ± 5.6 % of the control value
effect on TEER (Caco-2 cells; 8 and 16 ng/mL): slight non-significant decrease
macroscopic lesions on the intestine, other organs and tissues (mice): no macroscopic lesions
effect on LY permeability (Caco-2 cell monolayers [3]): significant increase
